# In patent US10189816B2, “Substituted pyridines as inhibitors of human immunodeficiency virus replication” (priority 2015, dated 2019):
# pEC50: −log10 of the molar value.
# System: NL-RLuc virus
# Assay: Inhibition of HIV replication (NL-RLuc reporter virus in MT-2 cells, luciferase readout)
# Type: cell-based
# Conditions: Human immunodeficiency virus 1, MT2, 120 h, read-out: Activity
# From the text: Inhibition of HIV replication: A recombinant NL-RLuc proviral clone was constructed in which a section of the nef gene from NL4-3 was replaced with the Renilla Luciferase gene. This virus is fully infectious and can undergo multiple cycles of replication in cell culture. In addition, the luciferous reporter provides a simple and easy method for quantitating the extent of virus growth and consequently, the antiviral activity of test compounds. The plasmid pNLRLuc contains the proviral NL-Rluc DNA cloned into pUC18 at the PvuII site. The NL-RLuc virus was prepared by transfection of 293T cells with the plasmid pNLRLuc. Transfections were performed using the LipofectAMINE PLUS kit from Invitrogen (Carlsbad, Calif.) according to the manufacturer and the virus generated was titered in MT-2 cells. For susceptibility analyses, the titrated virus was used to infect MT-2 cells in the presence of compound, and after 5 days of incubation, cells were processed and quantitated for virus growth by the amount of expressed luciferase. Assay media was RPMI 1640 supplemented with 10% heat inactivated fetal bovine serum (FBS), 100 units/ml penicillin G/100 units/ml streptomycin, 10 mM HEPES buffer pH 7.55 and 2 mM L-glutamine. The results from at least 2 experiments were used to calculate the EC50 values. Luciferase was quantitated using the Dual Luciferase kit from Promega (Madison, Wis.). Susceptibility of viruses to compounds was determined by incubation in the presence of serial dilutions of the compound. The 50% effective concentration (EC50) was calculated by using the exponential form of the median effect equation where (Fa)=1/[1+(ED50/drug conc.)^m] (Johnson V A, Byington R T. Infectivity Assay. In Techniques in HIV Research. ed. Aldovini A, Walker B D. 71-76. New York: Stockton Press.1990). Activity equal to A refers to a compound having an EC50≤100 nM, while B and C denote compounds having an EC50 between 100 nM and 1 uM (B) or >1 uM (C).
row,Compound,pEC50
1,"Cc1cccc(Cl)c1CN1CCc2cc(-c3c(C)nc(C)c([C@H](OC(C)(C)C)C(=O)O)c3N3CCC(C)(C)CC3)ccc2C1 [Compound 23, (S)-2-(tert-butoxy)-2-(5-(2-(2-chloro-6-methylbenzyl)-1,2,3,4-tetrahydroisoquinolin-6-yl)-4-(4,4-dimethylpiperidin-1-yl)-2,6-dimethylpyridin-3-yl)acetic acid]",> 7.00
2,"Cc1nc(C)c([C@H](OC(C)(C)C)C(=O)O)c(N2CCC(C)(C)CC2)c1-c1ccc2c(c1)CCN(Cc1ccc(F)c(Cl)c1)C2 [Compound 24, (S)-2-(tert-butoxy)-2-(5-(2-(3-chloro-4-fluorobenzyl)-1,2,3,4-tetrahydroisoquinolin-6-yl)-4-(4,4-dimethylpiperidin-1-yl)-2,6-dimethylpyridin-3-yl)acetic acid]",> 7.00
3,"Cc1cc(F)ccc1CN1CCc2cc(-c3c(C)nc(C)c([C@H](OC(C)(C)C)C(=O)O)c3N3CCC(C)(C)CC3)ccc2C1 [Compound 25, (S)-2-(tert-butoxy)-2-(4-(4,4-dimethylpiperidin-1-yl)-5-(2-(4-fluoro-2-methylbenzyl)-1,2,3,4-tetrahydroisoquinolin-6-yl)-2,6-dimethylpyridin-3-yl)acetic acid]",> 7.00
4,"Cc1nc(C)c([C@H](OC(C)(C)C)C(=O)O)c(N2CCC(C)(C)CC2)c1-c1ccc2c(c1)CCN(Cc1cc(Cl)cc(Cl)c1)C2 [Compound 26, (S)-2-(tert-butoxy)-2-(5-(2-(3,5-dichlorobenzyl)-1,2,3,4-tetrahydroisoquinolin-6-yl)-4-(4,4-dimethylpiperidin-1-yl)-2,6-dimethylpyridin-3-yl)acetic acid]",> 7.00
5,"Cc1nc(C)c([C@H](OC(C)(C)C)C(=O)O)c(N2CCC(C)(C)CC2)c1-c1ccc2c(c1)CCN(Cc1ccc(C(C)(C)C)cc1)C2 [Compound 27, (S)-2-(tert-butoxy)-2-(5-(2-(4-(tert-butyl)benzyl)-1,2,3,4-tetrahydroisoquinolin-6-yl)-4-(4,4-dimethylpiperidin-1-yl)-2,6-dimethylpyridin-3-yl)acetic acid]",> 7.00
6,"Cc1nc(C)c([C@H](OC(C)(C)C)C(=O)O)c(N2CCC(C)(C)CC2)c1-c1ccc2c(c1)CCN(Cc1cccc(Cl)c1)C2 [Compound 28, (S)-2-(tert-butoxy)-2-(5-(2-(3-chlorobenzyl)-1,2,3,4-tetrahydroisoquinolin-6-yl)-4-(4,4-dimethylpiperidin-1-yl)-2,6-dimethylpyridin-3-yl)acetic acid]",> 7.00
7,"Cc1ccc(C)c(CN2CCc3cc(-c4c(C)nc(C)c([C@H](OC(C)(C)C)C(=O)O)c4N4CCC(C)(C)CC4)ccc3C2)c1 [Compound 29, (S)-2-(tert-butoxy)-2-(5-(2-(2,5-dimethylbenzyl)-1,2,3,4-tetrahydroisoquinolin-6-yl)-4-(4,4-dimethylpiperidin-1-yl)-2,6-dimethylpyridin-3-yl)acetic acid]",> 7.00
8,"Cc1nc(C)c([C@H](OC(C)(C)C)C(=O)O)c(N2CCC(C)(C)CC2)c1-c1ccc2c(c1)CCN(Cc1c(F)cccc1C(F)(F)F)C2 [Compound 30, (S)-2-(tert-butoxy)-2-(4-(4,4-dimethylpiperidin-1-yl)-5-(2-(2-fluoro-6-(trifluoromethyl)benzyl)-1,2,3,4-tetrahydroisoquinolin-6-yl)-2,6-dimethylpyridin-3-yl)acetic acid]",> 7.00
9,"Cc1nc(C)c([C@H](OC(C)(C)C)C(=O)O)c(N2CCC(C)(C)CC2)c1-c1ccc2c(c1)CCN(Cc1cc(F)cc(F)c1)C2 [Compound 31, (S)-2-(tert-butoxy)-2-(5-(2-(3,5-difluorobenzyl)-1,2,3,4-tetrahydroisoquinolin-6-yl)-4-(4,4-dimethylpiperidin-1-yl)-2,6-dimethylpyridin-3-yl)acetic acid]",> 7.00
10,"Cc1nc(C)c([C@H](OC(C)(C)C)C(=O)O)c(N2CCC(C)(C)CC2)c1-c1ccc2c(c1)CCN(Cc1cccc(C(F)(F)F)c1F)C2 [Compound 32, (S)-2-(tert-butoxy)-2-(4-(4,4-dimethylpiperidin-1-yl)-5-(2-(2-fluoro-3-(trifluoromethyl)benzyl)-1,2,3,4-tetrahydroisoquinolin-6-yl)-2,6-dimethylpyridin-3-yl)acetic acid]",> 7.00
11,"Cc1cccc(C)c1CN1CCc2cc(-c3c(C)nc(C)c([C@H](OC(C)(C)C)C(=O)O)c3N3CCC(C)(C)CC3)ccc2C1 [Compound 33, (S)-2-(tert-butoxy)-2-(5-(2-(2,6-dimethylbenzyl)-1,2,3,4-tetrahydroisoquinolin-6-yl)-4-(4,4-dimethylpiperidin-1-yl)-2,6-dimethylpyridin-3-yl)acetic acid]",> 7.00
12,"Cc1nc(C)c([C@H](OC(C)(C)C)C(=O)O)c(N2CCC(C)(C)CC2)c1-c1ccc2c(c1)CCN(Cc1cc(F)c(F)c(F)c1)C2 [Compound 34, (S)-2-(tert-butoxy)-2-(4-(4,4-dimethylpiperidin-1-yl)-2,6-dimethyl-5-(2-(3,4,5-trifluorobenzyl)-1,2,3,4-tetrahydroisoquinolin-6-yl)pyridin-3-yl)acetic acid]",> 7.00
13,"Cc1nc(C)c([C@H](OC(C)(C)C)C(=O)O)c(N2CCC(C)(C)CC2)c1-c1ccc2c(c1)CCN(Cc1ccc(F)cc1Cl)C2 [Compound 35, (S)-2-(tert-butoxy)-2-(5-(2-(2-chloro-4-fluorobenzyl)-1,2,3,4-tetrahydroisoquinolin-6-yl)-4-(4,4-dimethylpiperidin-1-yl)-2,6-dimethylpyridin-3-yl)acetic acid]",> 7.00
14,"Cc1nc(C)c([C@H](OC(C)(C)C)C(=O)O)c(N2CCC(C)(C)CC2)c1-c1ccc2c(c1)CCN(Cc1cccc(C(C)C)c1)C2 [Compound 36, (S)-2-(tert-butoxy)-2-(4-(4,4-dimethylpiperidin-1-yl)-5-(2-(3-isopropylbenzyl)-1,2,3,4-tetrahydroisoquinolin-6-yl)-2,6-dimethylpyridin-3-yl)acetic acid]",> 7.00
15,"Cc1nc(C)c([C@H](OC(C)(C)C)C(=O)O)c(N2CCC(C)(C)CC2)c1-c1ccc2c(c1)CCN(Cc1ccc(F)c(F)c1)C2 [Compound 37, (S)-2-(tert-butoxy)-2-(5-(2-(3,4-difluorobenzyl)-1,2,3,4-tetrahydroisoquinolin-6-yl)-4-(4,4-dimethylpiperidin-1-yl)-2,6-dimethylpyridin-3-yl)acetic acid]",> 7.00
16,"Cc1nc(C)c([C@H](OC(C)(C)C)C(=O)O)c(N2CCC(C)(C)CC2)c1-c1ccc2c(c1)CCN(Cc1cc(F)ccc1F)C2 [Compound 38, (S)-2-(tert-butoxy)-2-(5-(2-(2,5-difluorobenzyl)-1,2,3,4-tetrahydroisoquinolin-6-yl)-4-(4,4-dimethylpiperidin-1-yl)-2,6-dimethylpyridin-3-yl)acetic acid]",> 7.00
17,"Cc1nc(C)c([C@H](OC(C)(C)C)C(=O)O)c(N2CCC(C)(C)CC2)c1-c1ccc2c(c1)CCN(Cc1ccc(Cl)cc1F)C2 [Compound 39, (S)-2-(tert-butoxy)-2-(5-(2-(4-chloro-2-fluorobenzyl)-1,2,3,4-tetrahydroisoquinolin-6-yl)-4-(4,4-dimethylpiperidin-1-yl)-2,6-dimethylpyridin-3-yl)acetic acid]",> 7.00

# Same assay, conditions: Human immunodeficiency virus 1, MT2, 120 h, read-out: EC50 μM
row,Compound,EC50
1,"Cc1cccc(Cl)c1CN1CCc2cc(-c3c(C)nc(C)c([C@H](OC(C)(C)C)C(=O)O)c3N3CCC(C)(C)CC3)ccc2C1 [Compound 23, (S)-2-(tert-butoxy)-2-(5-(2-(2-chloro-6-methylbenzyl)-1,2,3,4-tetrahydroisoquinolin-6-yl)-4-(4,4-dimethylpiperidin-1-yl)-2,6-dimethylpyridin-3-yl)acetic acid]",0.003 µM
2,"Cc1nc(C)c([C@H](OC(C)(C)C)C(=O)O)c(N2CCC(C)(C)CC2)c1-c1ccc2c(c1)CCN(Cc1cc(F)cc(F)c1)C2 [Compound 31, (S)-2-(tert-butoxy)-2-(5-(2-(3,5-difluorobenzyl)-1,2,3,4-tetrahydroisoquinolin-6-yl)-4-(4,4-dimethylpiperidin-1-yl)-2,6-dimethylpyridin-3-yl)acetic acid]",0.011 µM
3,"Cc1nc(C)c([C@H](OC(C)(C)C)C(=O)O)c(N2CCC(C)(C)CC2)c1-c1ccc2c(c1)CCN(Cc1cc(F)ccc1F)C2 [Compound 38, (S)-2-(tert-butoxy)-2-(5-(2-(2,5-difluorobenzyl)-1,2,3,4-tetrahydroisoquinolin-6-yl)-4-(4,4-dimethylpiperidin-1-yl)-2,6-dimethylpyridin-3-yl)acetic acid]",0.006 µM
